Source: US20220401360A1, “Milrinone Composition and Method for Administering Same” (Vanderbilt University, priority 2015, published 2022)
Where “and” joins values, the source holds several entries; their conditions need not be identical. Equal values may be shown once. Read-outs that look alike come from different tables or passages of the source.

Assays:
[1] = system: post-operative CF-LVAD patients; assay: Tolerability / safety primary end point of inhaled milrinone (arrhythmias, hypotension, hypersensitivity, death); type: in vivo; settings: for Death while receiving inhaled milrinone therapy: 10 patients
Protocol: (§1) Methods. The present inventors evaluated fixed dose nebulized iMil delivered into a ventilator circuit for 24 hours in 10 post-operative CF-LVAD (HeartMate-II=10) patients. Tolerability (arrhythmias, hypotension and hypersensitivity reaction), efficacy (hemodynamic), pharmacokinetics (plasma milrinone levels) and cost data were collected.
The primary end point was safety, which included documentation of 1) new atrial arrhythmias, lasting greater than 30 seconds or resulting in hemodynamic instability (mean arterial pressure (MAP)<60 mmHg or requiring medical intervention) 2) sustained ventricular tachycardia (VT) lasting greater than 30 seconds, not related to an LVAD suction event or any ventricular arrhythmia resulting in hemodynamic instability (sustained hypotension with a MAP <60 mmHg not related to secondary causes such as acute blood loss or tamponade) and 3) hypersensitivity reaction to milrinone leading to systemic hypotension (MAP<60 mmHg or requiring medical intervention), bronchospasm or rash 4) Death by 30 days.

[2] = system: post-operative CF-LVAD patients; assay: Perioperative hemodynamics (right heart catheterization / indwelling pulmonary artery catheter) with inhaled milrinone; type: in vivo, human
Protocol: as §1
(§2) Secondary end points were designed to assess the efficacy, cost effectiveness and pharmacokinetic profile of inhaled milrinone therapy. Efficacy endpoints included hospital and intensive care unit (ICU) length of stay, days on inotropes, mortality at 30 days and changes in right ventricular stroke work index (RSVWi) and right heart catheterization and echocardiographic parameters from baseline values. Right heart catheterization was performed during the hospitalization before LVAD implantation and included the following parameters: right atrial pressure (RAP), mean pulmonary artery pressure (mPAP), pulmonary artery systolic pressure (PASP), cardiac index (CI) and cardiac output (CO). Echocardiographic data was collected retrospectively from echocardiograms closest to LVAD implantation date (studies performed >1 month before surgery were not included) and prospectively obtained within 72 hours after LVAD implantation. Echocardiographic parameters included: left ventricular end diastolic volume (LVEDV), left ventricular end diastolic dimension (LVEDd), cardiac output (CO), PASP, qualitative RV function, and tricuspid annular plane systolic excursion (TAPSE).
Delivery of inhaled milrinone was initiated five minutes before the first weaning attempt from cardiopulmonary bypass after LVAD implantation in the operating suite. Intraoperative transesophageal echocardiography was performed and analyzed by a single cardiac anesthesiologist, certified in the interpretation of intraoperative echocardiography. Prior to initiation of inhaled milrinone, blood samples were obtained and analyzed for baseline plasma levels of milrinone. Patient arrival in the ICU immediately after LVAD implantation was defined as ‘time zero.’ Further blood samples to determine plasma milrinone levels were obtained at 1, 4, 8, 12 and 24 hours after arrival to the ICU. Hemodynamic values from indwelling pulmonary artery catheter and routine vital signs were also obtained at 1, 4, 8, 12 and 24 hour intervals. Patients received inhaled milrinone for a maximum of 24 hours or until the patient was extubated (if less than 24 hours). Final hemodynamic values were obtained 1 hour after extubation or cessation of inhaled milrinone therapy. All patients underwent a transthoracic echocardiogram 48-72 hours after cessation of inhaled milrinone.

[3] = system: post-operative CF-LVAD patients; assay: Hospital and ICU length of stay, days on inotropes; type: in vivo, human; settings: inhaled milrinone group
Protocol: as §2

[4] = Plasma milrinone levels (HPLC) during inhaled milrinone after CF-LVAD implantation; type: in vivo, human; settings: for concentration at 0 h / concentration at 1 h / concentration at 4 h / concentration at 8 h / concentration at 12 h / concentration at 24 h: human, plasma, inhaled, 6 mg/h
Protocol: Blood samples to determine plasma milrinone levels were obtained at baseline, 1, 4, 8, 12 and 24 hours after initiation of inhaled milrinone. Plasma milrinone levels were determined by ultra-violet high liquid chromatography (HPLC) method [14].
Delivery of inhaled milrinone was initiated five minutes before the first weaning attempt from cardiopulmonary bypass after LVAD implantation in the operating suite. […] Prior to initiation of inhaled milrinone, blood samples were obtained and analyzed for baseline plasma levels of milrinone. Patient arrival in the ICU immediately after LVAD implantation was defined as ‘time zero.’ Further blood samples to determine plasma milrinone levels were obtained at 1, 4, 8, 12 and 24 hours after arrival to the ICU. […] Patients received inhaled milrinone for a maximum of 24 hours or until the patient was extubated (if less than 24 hours).

[5] = literature refs [17, 18]; cited from earlier work
[6] = system: post-operative CF-LVAD patients; assay: Echocardiographic parameters before vs after LVAD implantation with inhaled milrinone; type: in vivo, human
Protocol: Secondary end points were designed to assess the efficacy, cost effectiveness and pharmacokinetic profile of inhaled milrinone therapy. […] Right heart catheterization was performed during the hospitalization before LVAD implantation and included the following parameters: right atrial pressure (RAP), mean pulmonary artery pressure (mPAP), pulmonary artery systolic pressure (PASP), cardiac index (CI) and cardiac output (CO). […] Echocardiographic parameters included: left ventricular end diastolic volume (LVEDV), left ventricular end diastolic dimension (LVEDd), cardiac output (CO), PASP, qualitative RV function, and tricuspid annular plane systolic excursion (TAPSE). Delivery of inhaled milrinone was initiated five minutes before the first weaning attempt from cardiopulmonary bypass after LVAD implantation in the operating suite. Intraoperative transesophageal echocardiography was performed and analyzed by a single cardiac anesthesiologist, certified in the interpretation of intraoperative echocardiography. Prior to initiation of inhaled milrinone, blood samples were obtained and analyzed for baseline plasma levels of milrinone. […] All patients underwent a transthoracic echocardiogram 48-72 hours after cessation of inhaled milrinone.

[7] = Characterization of inhaled milrinone: nebulization degradation profile (mass spectrometry); type: physicochemical; settings: vibrating mesh nebulizer connected to a mechanical ventilator circuit
Protocol: Inhaled milrinone validation studies were performed in order to characterize inhaled milrinone aerosol particle size, evaluate nebulization degradation profile, and quantify drug delivery using a vibrating mesh nebulizer connected to a mechanical ventilator circuit. […] A pharmaceutical grade impactor was used to determine median aerodynamic particle size and HPLC was used to determine the amount of milrinone collected at the distal end of the experimental endotracheal tube [15]. Based on this analysis, we prepared a solution of milrinone diluted in 0.9% saline to a final concentration of 0.5 mg/ml to be delivered via continuous infusion by an Alaris® infusion pump set at a fixed rate of 12 ml/hr connected to an Areogen Solo (Aeroneb,® Galway, Ireland) vibrating mesh nebulizer and Aeroneb Pro-X nebulizer control unit (Aerogen, Galway, Ireland). The nebulizer was connected to a mechanical ventilator (Servo-I, Maquet Inc. Wayne N.J.) with a dual heated wire ventilator circuit (Teleflex Hudson RCI, Research Triangle Park, N.C.) proximal to the heated humidifier (Teleflex Hudson Neptune, Research Triangle Park, N.C.). Despite continuous nebulization, delivery of the aerosolized drug product occurred in an ‘intermittent-continuous’ fashion based on the mechanical ventilator respiratory rate. All inhaled milrinone product was administered by a licensed respiratory therapist.

[8] = while on inhaled milrinone therapy, p<0.009

SMILES: Cc1[nH]c(=O)c(C#N)cc1-c1ccncc1 [inhaled milrinone, milrinone]
- Death while receiving inhaled milrinone therapy [1]: No deaths occurred
- Death while receiving inhaled milrinone therapy ([1]; listed as iMil): not observed
- Ventricular tachycardia events, number (%) ([1]; human, in vivo): 3 (30%)
- Non-sustained VT, number of patients/events ([1]; human, in vivo, 24 h): 1
- Sustained VT, number of patients/events ([1]; human, in vivo, 24 h): 2
- Deaths in the study group 30 days after CF-LVAD implantation ([1]; institutional 30 day death rate 12% (12/102), p=0.60): 0/10
- Rate of ventricular arrhythmias during inhaled milrinone therapy ([1]; n=3 of 10, INTERMACS data base 36%, p=0.99): 30%
- Patients requiring veno-arterial ECMO support ([1]; within hours of LVAD implantation, no absolute cause identified): 1
- Right Atrial Pressure, mean, Post milrinone ([2]; 1 hour after cessation of inhaled milrinone, Pre-VAD RHC 13.75): 25.75 mmHg
- Mean Pulmonary Artery Pressure, mean, Post milrinone ([2]; 1 hour after cessation, Pre-VAD RHC 39.5): 27 mmHg
- Pulmonary Artery Systolic Pressure, mean, Post milrinone ([2]; 1 hour after cessation, Pre-VAD RHC 56.33): 38.75 mmHg
- Right Atrial Pressure, mean, ICU arrival ([2]; ICU arrival after LVAD implantation, inhaled milrinone started before weaning from bypass, Pre-VAD RHC 13.75): 13.33 mmHg
- Mean Pulmonary Artery Pressure, mean, ICU arrival ([2]; ICU arrival, Pre-VAD RHC 39.5): 28.5 mmHg
- Pulmonary Artery Systolic Pressure, mean, ICU arrival ([2]; ICU arrival, Pre-VAD RHC 56.33): 36.00 mmHg
- Right Atrial Pressure, Mean on milrinone ([2]; during inhaled milrinone, Pre-VAD RHC 13.75): 13.53 mmHg
- Mean Pulmonary Artery Pressure, Mean on milrinone ([2]; during inhaled milrinone, Pre-VAD RHC 39.5): 25.88 mmHg
- Pulmonary Artery Systolic Pressure, Mean on milrinone ([2]; during inhaled milrinone, Pre-VAD RHC 56.33): 36.25 mmHg
- Invasive mean pulmonary artery pressure from baseline to during iMil therapy ([2]; p=0.017): improved
- RVSWi, mean, 1 hour after milrinone cessation ([2]; preoperative mean 571, p=0.179): 383 mmHg-mL/m^2
- RVSWi, median, 1 hour after milrinone cessation ([2]; preoperative median 453, p=0.179): 326 mmHg-mL/m^2
- Median ICU length of stay ([3]; institutional 5 days, p=0.49): 5 days
- Median total days on inotrope support ([3]; institutional 6 days, p=0.08): 9 days
- Median total hospital length of stay ([3]; institutional 28 days, p=0.26): 33 days
- Mean plasma milrinone levels at baseline ([4]; baseline, fixed dose nebulized iMil, 10 post-operative CF-LVAD patients): 74.2 ± 35.4 ng/mL
- concentration at 0 h ([4]; Table 3 mean of patients, 0 hrs, read-out: Plasma milrinone level, Mean, 0 hrs): 114 ng/mL
- concentration at 1 h ([4]; Table 3 mean of patients, 1 hrs, read-out: Plasma milrinone level, Mean, 1 hrs): 133 ng/mL
- concentration at 4 h ([4]; Table 3 mean of patients, 4 hrs, read-out: Plasma milrinone level, Mean, 4 hrs): 149 ng/mL
- concentration at 8 h ([4]; Table 3 mean of patients, 8 hrs, read-out: Plasma milrinone level, Mean, 8 hrs): 213 ng/mL
- concentration at 12 h ([4]; Table 3 mean of patients, 12 hrs, read-out: Plasma milrinone level, Mean, 12 hrs): 176 ng/mL
- concentration at 24 h ([4]; Table 3 mean of patients, 24 hrs, read-out: Plasma milrinone level, Mean, 24 hrs): 173 ng/mL
- concentration at 0 h ([4]; Table 3 median of patients, 0 hrs, read-out: Plasma milrinone level, Median, 0 hrs): 75 ng/mL
- concentration at 1 h ([4]; Table 3 median of patients, 1 hrs, read-out: Plasma milrinone level, Median, 1 hrs): 114 ng/mL
- concentration at 4 h ([4]; Table 3 median of patients, 4 hrs, read-out: Plasma milrinone level, Median, 4 hrs): 117 ng/mL
- concentration at 8 h ([4]; Table 3 median of patients, 8 hrs, read-out: Plasma milrinone level, Median, 8 hrs): 227 ng/mL
- concentration at 12 h ([4]; Table 3 median of patients, 12 hrs, read-out: Plasma milrinone level, Median, 12 hrs): 160 ng/mL
- concentration at 24 h ([4]; Table 3 median of patients, 24 hrs, read-out: Plasma milrinone level, Median, 24 hrs): 137 ng/mL
- concentration at 1 h ([4]; 1 hour, read-out: Mean plasma milrinone levels at 1 hour): 111 ± 70.9 ng/mL
- concentration at 4 h ([4]; 4 hour, read-out: Mean plasma milrinone levels at 4 hour): 136 ± 41.5 ng/mL
- concentration at 8 h ([4]; 8 hour, read-out: Mean plasma milrinone levels at 8 hour): 205 ± 86.7 ng/mL
- concentration at 12 h ([4]; 12 hour, read-out: Mean plasma milrinone levels at 12 hour): 177 ± 61.3 ng/mL
- concentration at 24 h ([4]; 24 hour, read-out: Mean plasma milrinone levels at 24 hour): 188 ± 106 ng/mL
- Plasma milrinone level, 0 hrs ([4]; individual patients 1-10, 0 hrs, inhaled milrinone 0.5 mg/ml at 12 ml/hr, prior IV milrinone stopped 6 h (Patient 1) or >12 h before surgery): 69.93 ng/mL and 65.54 ng/mL and 87.08 ng/mL and 138.22 ng/mL and 392.92 ng/mL and 20.85 ng/mL and 80.03 ng/mL and 57.67 ng/mL
- Plasma milrinone level, 1 hrs ([4]; individual patients 1-10, 1 hrs, continuous inhaled milrinone 0.5 mg/ml at 12 ml/hr): 239.86 ng/mL and 115.38 ng/mL and 106.94 ng/mL and 111.96 ng/mL and 12.54 ng/mL and 157.04 ng/mL and 326.72 ng/mL and 81.31 ng/mL and 18.53 ng/mL and 158.4 ng/mL
- Plasma milrinone level, 4 hrs ([4]; individual patients 1-10, 4 hrs, continuous inhaled milrinone): 113.74 ng/mL and 112.71 ng/mL and 114.96 ng/mL and 92.16 ng/mL and 112.06 ng/mL and 188.04 ng/mL and 267.11 ng/mL and 154.31 ng/mL and 118.34 ng/mL and 216.26 ng/mL
- Plasma milrinone level, 8 hrs ([4]; individual patients 1-10, 8 hrs, continuous inhaled milrinone): 268.28 ng/mL and 115.66 ng/mL and 134 ng/mL and 273.14 ng/mL and 91.67 ng/mL and 349.39 ng/mL and 284.52 ng/mL and 158.8 ng/mL and 197.89 ng/mL and 255.72 ng/mL
- Plasma milrinone level, 12 hrs ([4]; individual patients 1-10, 12 hrs, continuous inhaled milrinone): 133.77 ng/mL and 152.27 ng/mL and 248.58 ng/mL and 254.31 ng/mL and 89.91 ng/mL and 167.3 ng/mL and 153.12 ng/mL and 205.26 ng/mL
- Plasma milrinone level, 24 hrs ([4]; individual patients 1-10, 24 hrs, continuous inhaled milrinone): 117.04 ng/mL and 364.15 ng/mL and 101.94 ng/mL and 100.88 ng/mL and 156.98 ng/mL and 197.73 ng/mL
- Plasma milrinone levels during inhaled milrinone therapy (within the accepted therapeutic milrinone range) ([4]; inhaled milrinone therapy, statement in words): 100 to 300 ng/mL
- Accepted therapeutic range of plasma milrinone [5]: 100 to 300 ng/mL
- Qualitative RV function after LVAD implantation vs pre-LVAD implant ([6]; p=0.347): not significantly different
- TAPSE after LVAD implantation vs pre-LVAD implant ([6]; p=0.846): not significantly different
- LVED volume (echocardiography) after LVAD implantation vs pre-LVAD implant [6, 8]: significant decreases
- LVIDd (echocardiography) after LVAD implantation vs pre-LVAD implant [6, 8]: significant decreases
- PASP (echocardiography) after LVAD implantation vs pre-LVAD implant [6, 8]: significant decreases
- New drug formation or degradation products after nebulization (mass spectrometry) [7]: did not identify new drug formation or degradation products
